Assay results as given in PMC9668928, “Zandelisib (ME-401) in Japanese patients with relapsed or refractory indolent non-Hodgkin’s lymphoma: an open-label, multicenter, dose-escalation phase 1 study” (International Journal of Hematology, 2022).

System: Japanese patients with R/R iNHL
Assay: Phase 1 dose-escalation study: safety and tolerability (TEAEs, DLTs)
Assay type: in vivo
Source text: Japanese patients aged ≥ 20 years with R/R iNHL histologically confirmed as FL, nodal MZL, extra-nodal MZL of mucosa-associated lymphoid tissue, small lymphocytic lymphoma, lymphoplasmacytic lymphoma, Waldenström’s macroglobulinemia, or equivalent, according to World Health Organization classification, were eligible for this study. Other key eligibility criteria included being PI3K inhibitor therapy-naïve and an Eastern Cooperative Oncology Group performance status of 0 or 1. Further details of inclusion and exclusion criteria are provided in Supplementary Table 1.
This was a multicenter, open-label, dose-escalation, phase 1 study in Japan. All patients received oral zandelisib once daily at the same time each day, at least 1 h before or 2 h after a meal (CS: continuous schedule). Each treatment cycle was 28 days. Definitions of the DLTs described in this study can be found in Supplementary Table 2. The observation period for DLTs was from day 1 of Cycle 1 to day 1 of Cycle 2. Zandelisib was administered until disease progression or unacceptable toxicity. In the event of an AE, patients could be switched to IDT. In the case of disease progression while receiving IDT, patients could be switched back to CS per the investigator’s discretion.
A starting dose of 45 mg was set for investigating patient safety. This study adopted a standard 3 + 3 design. […] If DLTs occurred in 2 or more patients, the study was planned to be suspended pending a safety evaluation. If a DLT occurred in 1 patient, 3 further patients were added to cohort 1. If DLTs occurred in 0/3 or 1/6 patients in cohort 1, dosing in cohort 2 commenced (n = 6; 60 mg/day). If the incidence of DLTs in cohort 2 was ≤ 1/6, the maximum tolerated dose was not determined, and the dose in cohort 2 was to be selected as the recommended Japanese phase 2 dose.
The primary endpoint was the safety [number of patients with treatment-emergent adverse events (TEAEs), based on Common Terminology Criteria for Adverse Events version 5.0] and tolerability (including laboratory values, vital signs, and electrocardiogram performance) of zandelisib in Japanese patients. Hepatobiliary disorder, aspartate/alanine (AST/ALT) increased, diarrhea/colitis, organizing pneumonia, stomatitis, or rash were defined as irAEs in this manuscript. Secondary endpoints included PK (plasma concentrations and PK parameters) and the efficacy of zandelisib. […] The PK parameters for Cycle 1 day 1 and Cycle 2 day 1 were calculated for each patient by non-compartmental analysis. PK parameters included maximum plasma drug concentration (Cmax), area under the plasma concentration–time curve (AUC) from time zero to the last measurable point (AUC0–t), the AUC from time zero to infinity (AUC0-inf), and terminal half-life (t1/2).

Structure (SMILES): CN1CCC(c2ccccc2CC(C)(C)Nc2nc(N3CCOCC3)nc(-n3c(C(F)F)nc4ccccc43)n2)CC1 [zandelisib]
- Grade 3 irAEs (45 mg): 2 patients
- deaths (45 mg and 60 mg): no deaths were observed
- TEAE ALT increased, All grades (45 mg, n = 3): 2 (66.7) n (%)
- TEAE ALT increased, Grade ≥ 3 (45 mg, n = 3): 0 n (%)
- TEAE AST increased, All grades (45 mg, n = 3): 2 (66.7) n (%)
- TEAE AST increased, Grade ≥ 3 (45 mg, n = 3): 0 n (%)
- TEAE Abdominal discomfort, All grades (45 mg, n = 3): 0 n (%)
- TEAE Abdominal discomfort, Grade ≥ 3 (45 mg, n = 3): 0 n (%)
- TEAE Abdominal pain upper, All grades (45 mg, n = 3): 1 (33.3) n (%)
- TEAE Abdominal pain upper, Grade ≥ 3 (45 mg, n = 3): 0 n (%)
- TEAE Amylase increased, All grades (45 mg, n = 3): 1 (33.3) n (%)
- TEAE Amylase increased, Grade ≥ 3 (45 mg, n = 3): 0 n (%)
- TEAE Anemia, All grades (45 mg, n = 3): 1 (33.3) n (%)
- TEAE Anemia, Grade ≥ 3 (45 mg, n = 3): 0 n (%)
- TEAE Arthralgia, All grades (45 mg, n = 3): 1 (33.3) n (%)
- TEAE Arthralgia, Grade ≥ 3 (45 mg, n = 3): 0 n (%)
- TEAE Back pain, All grades (45 mg, n = 3): 1 (33.3) n (%)
- TEAE Back pain, Grade ≥ 3 (45 mg, n = 3): 0 n (%)
- TEAE Blepharitis, All grades (45 mg, n = 3): 0 n (%)
- TEAE Blepharitis, Grade ≥ 3 (45 mg, n = 3): 0 n (%)
- TEAE Blood and lymphatic system disorders (SOC), All grades (45 mg, n = 3): 1 (33.3) n (%)
- TEAE Blood and lymphatic system disorders (SOC), Grade ≥ 3 (45 mg, n = 3): 0 n (%)
- TEAE Blood creatinine increased, All grades (45 mg, n = 3): 0 n (%)
- TEAE Blood creatinine increased, Grade ≥ 3 (45 mg, n = 3): 0 n (%)
- TEAE Bradycardia, All grades (45 mg, n = 3): 1 (33.3) n (%)
- TEAE Bradycardia, Grade ≥ 3 (45 mg, n = 3): 0 n (%)
- TEAE CMV test positive, All grades (45 mg, n = 3): 1 (33.3) n (%)
- TEAE CMV test positive, Grade ≥ 3 (45 mg, n = 3): 0 n (%)
- TEAE Cardiac disorders (SOC), All grades (45 mg, n = 3): 1 (33.3) n (%)
- TEAE Cardiac disorders (SOC), Grade ≥ 3 (45 mg, n = 3): 0 n (%)
- TEAE Conjunctivitis, All grades (45 mg, n = 3): 1 (33.3) n (%)
- TEAE Conjunctivitis, Grade ≥ 3 (45 mg, n = 3): 0 n (%)
- TEAE Constipation, All grades (45 mg, n = 3): 2 (66.7) n (%)
- TEAE Constipation, Grade ≥ 3 (45 mg, n = 3): 0 n (%)
- TEAE Cough, All grades (45 mg, n = 3): 0 n (%)
- TEAE Cough, Grade ≥ 3 (45 mg, n = 3): 0 n (%)
- TEAE Cytomegalovirus viremia, All grades (45 mg, n = 3): 1 (33.3) n (%)
- TEAE Decreased appetite, All grades (45 mg, n = 3): 1 (33.3) n (%)
- TEAE Decreased appetite, Grade ≥ 3 (45 mg, n = 3): 1 (33.3) n (%)
- TEAE Diarrhea, All grades (45 mg, n = 3): 2 (66.7) n (%)
- TEAE Diarrhea, Grade ≥ 3 (45 mg, n = 3): 1 (33.3) n (%)
- TEAE Drug hypersensitivity, All grades (45 mg, n = 3): 0 n (%)
- TEAE Drug hypersensitivity, Grade ≥ 3 (45 mg, n = 3): 0 n (%)
- TEAE Drug-induced liver injury, All grades (45 mg, n = 3): 0 n (%)
- TEAE Drug-induced liver injury, Grade ≥ 3 (45 mg, n = 3): 0 n (%)
- TEAE Dry eye, All grades (45 mg, n = 3): 1 (33.3) n (%)
- TEAE Dry eye, Grade ≥ 3 (45 mg, n = 3): 0 n (%)
- TEAE Dry skin, All grades (45 mg, n = 3): 1 (33.3) n (%)
- TEAE Dry skin, Grade ≥ 3 (45 mg, n = 3): 0 n (%)
- TEAE Dysgeusia, All grades (45 mg, n = 3): 1 (33.3) n (%)
- TEAE Dysgeusia, Grade ≥ 3 (45 mg, n = 3): 0 n (%)
- TEAE Dyspnea, All grades (45 mg, n = 3): 1 (33.3) n (%)
- TEAE Dyspnea, Grade ≥ 3 (45 mg, n = 3): 1 (33.3) n (%)
- TEAE Ear and labyrinth disorders (SOC), All grades (45 mg, n = 3): 1 (33.3) n (%)
- TEAE Ear and labyrinth disorders (SOC), Grade ≥ 3 (45 mg, n = 3): 0 n (%)
- TEAE Eczema, All grades (45 mg, n = 3): 0 n (%)
- TEAE Eczema, Grade ≥ 3 (45 mg, n = 3): 0 n (%)
- TEAE Eosinophil count increased, All grades (45 mg, n = 3): 1 (33.3) n (%)
- TEAE Eosinophil count increased, Grade ≥ 3 (45 mg, n = 3): 0 n (%)
- TEAE Erythema multiforme, All grades (45 mg, n = 3): 0 n (%)
- TEAE Erythema multiforme, Grade ≥ 3 (45 mg, n = 3): 0 n (%)
- TEAE Eye disorders (SOC), All grades (45 mg, n = 3): 1 (33.3) n (%)
- TEAE Eye disorders (SOC), Grade ≥ 3 (45 mg, n = 3): 0 n (%)
- TEAE Flank pain, All grades (45 mg, n = 3): 0 n (%)
- TEAE Flank pain, Grade ≥ 3 (45 mg, n = 3): 0 n (%)
- TEAE GGT increased, All grades (45 mg, n = 3): 0 n (%)
- TEAE GGT increased, Grade ≥ 3 (45 mg, n = 3): 0 n (%)
- TEAE Gastrointestinal disorders (SOC), All grades (45 mg, n = 3): 2 (66.7) n (%)
- TEAE Gastrointestinal disorders (SOC), Grade ≥ 3 (45 mg, n = 3): 2 (66.7) n (%)
- TEAE General disorders and administration site conditions (SOC), All grades (45 mg, n = 3): 1 (33.3) n (%)
- TEAE General disorders and administration site conditions (SOC), Grade ≥ 3 (45 mg, n = 3): 0 n (%)
- TEAE Hepatic function abnormal, All grades (45 mg, n = 3): 1 (33.3) n (%)
- TEAE Hepatic function abnormal, Grade ≥ 3 (45 mg, n = 3): 0 n (%)
- TEAE Hepatobiliary disorders (SOC), All grades (45 mg, n = 3): 1 (33.3) n (%)
- TEAE Hepatobiliary disorders (SOC), Grade ≥ 3 (45 mg, n = 3): 0 n (%)
- TEAE Herpes simplex, All grades (45 mg, n = 3): 1 (33.3) n (%)
- TEAE Herpes simplex, Grade ≥ 3 (45 mg, n = 3): 0 n (%)
- TEAE Herpes zoster, All grades (45 mg, n = 3): 0 n (%)
- TEAE Herpes zoster, Grade ≥ 3 (45 mg, n = 3): 0 n (%)
- TEAE Hypoesthesia, All grades (45 mg, n = 3): 1 (33.3) n (%)
- TEAE Hypoesthesia, Grade ≥ 3 (45 mg, n = 3): 0 n (%)
- TEAE Hypogammaglobulinemia, All grades (45 mg, n = 3): 2 (66.7) n (%)
- TEAE Hypogammaglobulinemia, Grade ≥ 3 (45 mg, n = 3): 0 n (%)
- TEAE Immune system disorders (SOC), All grades (45 mg, n = 3): 2 (66.7) n (%)
- TEAE Immune system disorders (SOC), Grade ≥ 3 (45 mg, n = 3): 0 n (%)
- TEAE Infections and infestations (SOC), All grades (45 mg, n = 3): 2 (66.7) n (%)
- TEAE Infections and infestations (SOC), Grade ≥ 3 (45 mg, n = 3): 0 n (%)
- TEAE Infusion site extravasation, All grades (45 mg, n = 3): 1 (33.3) n (%)
- TEAE Infusion site extravasation, Grade ≥ 3 (45 mg, n = 3): 0 n (%)
- TEAE Insomnia, All grades (45 mg, n = 3): 1 (33.3) n (%)
- TEAE Insomnia, Grade ≥ 3 (45 mg, n = 3): 0 n (%)
- TEAE Investigations (SOC), All grades (45 mg, n = 3): 3 (100.0) n (%)
- TEAE Investigations (SOC), Grade ≥ 3 (45 mg, n = 3): 2 (66.7) n (%)
- TEAE Joint effusion, All grades (45 mg, n = 3): 1 (33.3) n (%)
- TEAE Joint effusion, Grade ≥ 3 (45 mg, n = 3): 0 n (%)
- TEAE Lymphocyte count decreased, All grades (45 mg, n = 3): 2 (66.7) n (%)
- TEAE Lymphocyte count decreased, Grade ≥ 3 (45 mg, n = 3): 1 (33.3) n (%)
- TEAE Metabolism and nutrition disorders (SOC), All grades (45 mg, n = 3): 1 (33.3) n (%)
- TEAE Metabolism and nutrition disorders (SOC), Grade ≥ 3 (45 mg, n = 3): 1 (33.3) n (%)
- TEAE Muscle spasms, All grades (45 mg, n = 3): 1 (33.3) n (%)
- TEAE Muscle spasms, Grade ≥ 3 (45 mg, n = 3): 0 n (%)
- TEAE Musculoskeletal and connective tissue disorders (SOC), All grades (45 mg, n = 3): 2 (66.7) n (%)
- TEAE Musculoskeletal and connective tissue disorders (SOC), Grade ≥ 3 (45 mg, n = 3): 0 n (%)
- TEAE Nasopharyngitis, All grades (45 mg, n = 3): 2 (66.7) n (%)
- TEAE Nasopharyngitis, Grade ≥ 3 (45 mg, n = 3): 0 n (%)
- TEAE Nausea, All grades (45 mg, n = 3): 1 (33.3) n (%)
- TEAE Nausea, Grade ≥ 3 (45 mg, n = 3): 0 n (%)
- TEAE Nervous system disorders (SOC), All grades (45 mg, n = 3): 1 (33.3) n (%)
- TEAE Nervous system disorders (SOC), Grade ≥ 3 (45 mg, n = 3): 0 n (%)
- TEAE Neutrophil count decreased, All grades (45 mg, n = 3): 2 (66.7) n (%)
- TEAE Neutrophil count decreased, Grade ≥ 3 (45 mg, n = 3): 1 (33.3) n (%)
- TEAE Oral herpes, All grades (45 mg, n = 3): 1 (33.3) n (%)
- TEAE Oral herpes, Grade ≥ 3 (45 mg, n = 3): 0 n (%)
- TEAE Organizing pneumonia, All grades (45 mg, n = 3): 1 (33.3) n (%)
- TEAE Organizing pneumonia, Grade ≥ 3 (45 mg, n = 3): 1 (33.3) n (%)
- TEAE Oropharyngeal pain, All grades (45 mg, n = 3): 0 n (%)
